Assay results taken from patent US9999622B2, “Pyrazolothiazole compound and medicine comprising same” (NIPPON SHINYAKU CO., LTD., priority 2014, dated 2018).
Where a name gives a salt, the structure may show the parent alone.

Experiments:
Format in all cases: biochemical
[1] = molecular target: T1, JAK2 (Homo sapiens, UniProt O60674); test: JAK tyrosine kinase inhibitory activity in the presence of 1 mM ATP (ELISA), JAK2
T1 construct: purchased Carna Biosciences, Inc
Procedure, shortened: (§1)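 Recombinant kinase (7.5 nM JAK1; 0.75 nM JAK2, JAK3 working dilutions) reacted 1 h at 30 °C with 1 mM ATP in Tris-HCl pH 7.5, Tween-20, DTT, on streptavidin plates. Phosphotyrosine detected by HRP anti-pTyr antibody ELISA, TMB absorbance at 450 nm; duplicate wells, DMSO as negative control.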

[2] = molecular target: T2, JAK3 (Homo sapiens, UniProt P52333); test: JAK tyrosine kinase inhibitory activity in the presence of 1 mM ATP (ELISA), JAK3
T2 construct: purchased Carna Biosciences, Inc
T2 sequence (P52333 1-1124): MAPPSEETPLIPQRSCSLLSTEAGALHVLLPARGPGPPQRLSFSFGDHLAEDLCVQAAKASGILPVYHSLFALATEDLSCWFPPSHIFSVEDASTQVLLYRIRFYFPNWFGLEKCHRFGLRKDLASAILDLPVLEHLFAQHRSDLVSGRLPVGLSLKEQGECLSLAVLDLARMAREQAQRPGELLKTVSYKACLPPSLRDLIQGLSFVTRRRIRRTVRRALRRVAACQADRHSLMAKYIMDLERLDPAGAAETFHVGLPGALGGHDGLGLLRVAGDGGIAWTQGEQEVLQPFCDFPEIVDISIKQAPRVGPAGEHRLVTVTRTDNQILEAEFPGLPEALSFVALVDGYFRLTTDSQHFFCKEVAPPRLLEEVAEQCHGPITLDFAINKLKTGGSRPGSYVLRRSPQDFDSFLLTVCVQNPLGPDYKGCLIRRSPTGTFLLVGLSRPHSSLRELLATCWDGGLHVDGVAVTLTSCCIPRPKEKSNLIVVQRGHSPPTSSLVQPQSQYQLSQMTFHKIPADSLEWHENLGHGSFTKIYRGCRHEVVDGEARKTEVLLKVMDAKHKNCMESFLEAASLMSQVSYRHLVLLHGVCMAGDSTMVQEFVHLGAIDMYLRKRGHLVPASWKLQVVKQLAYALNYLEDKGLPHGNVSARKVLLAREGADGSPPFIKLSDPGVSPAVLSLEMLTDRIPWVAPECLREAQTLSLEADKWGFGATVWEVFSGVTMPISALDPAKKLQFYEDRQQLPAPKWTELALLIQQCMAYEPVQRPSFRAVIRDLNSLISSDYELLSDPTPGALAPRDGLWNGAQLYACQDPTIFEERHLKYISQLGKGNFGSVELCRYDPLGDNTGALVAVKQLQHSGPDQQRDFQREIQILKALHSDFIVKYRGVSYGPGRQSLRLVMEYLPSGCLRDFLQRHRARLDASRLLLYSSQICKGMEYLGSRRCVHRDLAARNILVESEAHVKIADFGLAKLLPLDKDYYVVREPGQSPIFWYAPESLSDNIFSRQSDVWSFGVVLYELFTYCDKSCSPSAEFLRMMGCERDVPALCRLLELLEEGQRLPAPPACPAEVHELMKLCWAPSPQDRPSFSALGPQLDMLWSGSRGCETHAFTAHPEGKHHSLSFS
Procedure, shortened: as §1

[3] = molecular target: T3, JAK1 (Homo sapiens, UniProt P23458); test: JAK tyrosine kinase inhibitory activity in the presence of 1 mM ATP (ELISA), JAK1
T3 construct: purchased Carna Biosciences, Inc
T3 sequence (P23458 whole entry): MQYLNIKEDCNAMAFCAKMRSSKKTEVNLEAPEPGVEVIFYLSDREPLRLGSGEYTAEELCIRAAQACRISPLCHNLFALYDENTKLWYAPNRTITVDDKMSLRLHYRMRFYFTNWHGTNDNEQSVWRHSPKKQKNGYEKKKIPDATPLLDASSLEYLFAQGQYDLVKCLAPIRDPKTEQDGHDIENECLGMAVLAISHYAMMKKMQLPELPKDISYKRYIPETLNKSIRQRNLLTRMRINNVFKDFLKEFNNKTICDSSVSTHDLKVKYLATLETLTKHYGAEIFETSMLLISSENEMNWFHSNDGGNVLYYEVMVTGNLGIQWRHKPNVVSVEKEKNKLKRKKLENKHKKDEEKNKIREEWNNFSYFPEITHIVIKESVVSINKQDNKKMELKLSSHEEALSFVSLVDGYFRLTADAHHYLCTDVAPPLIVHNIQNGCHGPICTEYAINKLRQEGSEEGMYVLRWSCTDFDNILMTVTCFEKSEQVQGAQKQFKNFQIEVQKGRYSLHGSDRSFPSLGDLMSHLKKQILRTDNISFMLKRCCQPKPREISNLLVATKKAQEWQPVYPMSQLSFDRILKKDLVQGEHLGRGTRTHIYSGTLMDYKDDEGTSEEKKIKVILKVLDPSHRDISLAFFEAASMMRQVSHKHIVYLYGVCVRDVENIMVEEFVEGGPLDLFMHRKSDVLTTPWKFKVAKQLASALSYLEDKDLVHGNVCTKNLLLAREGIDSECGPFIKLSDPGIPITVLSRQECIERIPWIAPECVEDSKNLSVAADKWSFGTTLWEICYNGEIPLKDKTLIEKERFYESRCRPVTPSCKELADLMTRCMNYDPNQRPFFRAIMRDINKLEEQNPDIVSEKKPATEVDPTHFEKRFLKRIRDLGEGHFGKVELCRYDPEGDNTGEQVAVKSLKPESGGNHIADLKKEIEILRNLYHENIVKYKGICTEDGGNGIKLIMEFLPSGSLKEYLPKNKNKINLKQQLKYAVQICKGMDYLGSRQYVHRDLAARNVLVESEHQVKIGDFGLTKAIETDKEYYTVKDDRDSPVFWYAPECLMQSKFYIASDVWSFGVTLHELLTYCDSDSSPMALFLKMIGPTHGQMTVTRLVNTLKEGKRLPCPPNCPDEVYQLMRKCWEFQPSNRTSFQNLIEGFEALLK
Procedure, shortened: as §1

T1 sequence (O60674 whole entry): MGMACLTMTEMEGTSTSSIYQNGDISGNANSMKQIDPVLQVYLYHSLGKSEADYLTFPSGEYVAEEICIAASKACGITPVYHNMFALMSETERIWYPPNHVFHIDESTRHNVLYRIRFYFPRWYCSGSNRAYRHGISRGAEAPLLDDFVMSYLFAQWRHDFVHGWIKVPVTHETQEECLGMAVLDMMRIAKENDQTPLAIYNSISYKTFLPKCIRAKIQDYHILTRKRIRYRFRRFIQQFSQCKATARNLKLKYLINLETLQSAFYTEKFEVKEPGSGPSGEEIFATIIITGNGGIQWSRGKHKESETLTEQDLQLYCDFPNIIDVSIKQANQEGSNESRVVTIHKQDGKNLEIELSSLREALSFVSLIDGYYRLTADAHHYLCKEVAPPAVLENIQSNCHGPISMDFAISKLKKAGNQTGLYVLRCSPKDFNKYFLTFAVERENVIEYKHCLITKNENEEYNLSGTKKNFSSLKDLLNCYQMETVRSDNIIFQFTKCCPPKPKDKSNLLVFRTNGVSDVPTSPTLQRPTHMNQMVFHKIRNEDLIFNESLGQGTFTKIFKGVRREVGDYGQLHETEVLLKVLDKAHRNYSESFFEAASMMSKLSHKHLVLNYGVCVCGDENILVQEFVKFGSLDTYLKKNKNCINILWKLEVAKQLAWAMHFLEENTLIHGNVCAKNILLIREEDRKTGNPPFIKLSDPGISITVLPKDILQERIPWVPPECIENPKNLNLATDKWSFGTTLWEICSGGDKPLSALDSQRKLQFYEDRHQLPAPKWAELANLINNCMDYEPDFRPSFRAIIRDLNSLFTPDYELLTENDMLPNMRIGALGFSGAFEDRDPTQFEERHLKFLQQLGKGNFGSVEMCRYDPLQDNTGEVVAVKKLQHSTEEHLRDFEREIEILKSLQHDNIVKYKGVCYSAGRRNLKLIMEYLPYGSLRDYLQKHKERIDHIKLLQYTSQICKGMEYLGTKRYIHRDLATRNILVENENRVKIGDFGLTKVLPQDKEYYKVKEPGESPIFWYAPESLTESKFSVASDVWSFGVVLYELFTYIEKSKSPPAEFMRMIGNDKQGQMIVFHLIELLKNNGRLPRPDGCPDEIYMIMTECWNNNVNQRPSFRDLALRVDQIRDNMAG

Row | Structure (SMILES) | IC50 [1] | IC50 [2] | IC50 [3]
1 | CC(=O)NC1CCN(C(=O)c2cc(N[C@@H](C)C3CC3)nc(-c3cnn4ccsc34)n2)CC1 [Example 2, N-(1-{[6-{[(1S)-1-Cyclopropylethyl]amino}-2-(pyrazolo[5,1-b][1,3]thiazol-7-yl)pyrimidin-4-yl]carbonyl}piperidin-4-yl)acetamide] | 2100 nM | 2700 nM | 570 nM
2 | CC(=O)NC1CCN(C(=O)c2nc(-c3cnn4ccsc34)nc(N[C@@H](C)C3CC3)c2C)CC1 [Example 13, N-(1-{[6-{[(1S)-1-Cyclopropylethyl]amino}-5-methyl-2-(pyrazolo[5,1-b][1,3]thiazol-7-yl)pyrimidin-4-yl]carbonyl}piperidin-4-yl)acetamide] | 2400 nM | 1600 nM | 400 nM
3 | O=C(NC1CCN(C(=O)c2cc(NC3COC3)nc(-c3cnn4ccsc34)n2)CC1)C1CC1 [Example 173, N-(1-6-[(oxetan-3-yl)amino]-2-(pyrazolo[5,1-b][1,3]thiazol-7-yl)pyrimidine-4-carbonylpiperidin-4-yl)cyclopropanecarboxamide] | > 10000 nM | > 10000 nM | 3400 nM
4 | C[C@@H](COC(F)F)Nc1cc(C(=O)N2CCC(NC(=O)C3CC3)CC2)nc(-c2cnn3ccsc23)n1 [Example 17, N-(1-{[6-{[(2S)-1-(Difluoromethoxy)propan-2-yl]amino}-2-(pyrazolo[5,1-b][1,3]thiazol-7-yl)pyrimidin-4-yl]carbonyl}piperidin-4-yl)cyclopropanecarboxamide] | 5100 nM | 5800 nM | 230 nM
5 | C[C@@H](Nc1cc(C(=O)N2CCC(NC(=O)c3ccccc3Cl)CC2)nc(-c2cnn3ccsc23)n1)C(C)(C)C [Example 196, 2-Chloro-N-1-[6-[(2R)-3,3-dimethylbutan-2-yl]amino-2-(pyrazolo[5,1-b][1,3]thiazol-7-yl)pyrimidine-4-carbonyl]piperidin-4-ylbenzamide] | 9100 nM | 7300 nM | 110 nM
6 | COC(=O)NC1CCN(C(=O)c2cc(N[C@H]3CCNC3)nc(-c3cnn4ccsc34)n2)CC1 [Example 149, Methyl [1-({2-(pyrazolo[5,1-b][1,3]thiazol-7-yl)-6-[(3S)-pyrrolidin-3-ylamino]pyrimidin-4-yl}carbonyl)piperidin-4-yl]carbamate dihydrochloride] | > 10000 nM | > 10000 nM | 1000 nM
7 | COC(=O)NC1CCN(C(=O)c2cc(Oc3ccccc3)nc(-c3cnn4ccsc34)n2)CC1 [Example 141, Methyl (1-{[6-phenoxy-2-(pyrazolo[5,1-b][1,3]thiazol-7-yl)pyrimidin-4-yl]carbonyl}piperidin-4-yl)carbamate] | > 10000 nM | > 10000 nM | 1100 nM
8 | CC(=O)NC1CCN(C(=O)c2nc(-c3cnn4ccsc34)nc(N[C@@H](C)C(C)(C)C)c2C)CC1 [Example 6, N-(1-{[6-{[(2S)-3,3-Dimethylbutan-2-yl]amino}-5-methyl-2-(pyrazolo[5,1-b][1,3]thiazol-7-yl)pyrimidin-4-yl]carbonyl}piperidin-4-yl)acetamide] | 1800 nM | 2800 nM | 240 nM
9 | C[C@H](Nc1cc(C(=O)N2CCC(NS(=O)(=O)C3CC3)CC2)nc(-c2cnn3ccsc23)n1)C1CC1 [Example 67, N-(1-{[6-{[(1S)-1-Cyclopropylethyl]amino}-2-(pyrazolo[5,1-b][1,3]thiazol-7-yl)pyrimidin-4-yl]carbonyl}piperidin-4-yl)cyclopropanesulfonamide] | 680 nM | 1900 nM | 25 nM
10 | O=C(NC1CCN(C(=O)c2cc(N[C@H]3CCC[C@@H]3OC(F)F)nc(-c3cnn4ccsc34)n2)CC1)C1CC1 [Example 14, N-(1-{[6-{[(1S,2S)-2-(Difluoromethoxy)cyclopentyl]amino}-2-(pyrazolo[5,1-b][1,3]thiazol-7-yl)pyrimidin-4-yl]carbonyl}piperidin-4-yl)cyclopropanecarboxamide] | 1700 nM | 1500 nM | 69 nM
11 | CC(C)(C)Nc1cc(C(=O)N2CCC(Nc3ccccn3)CC2)nc(-c2cnn3ccsc23)n1 [Example 72, [6-(tert-Butylamino)-2-(pyrazolo[5,1-b][1,3]thiazol-7-yl)pyrimidin-4-yl][4-(pyridin-2-ylamino)piperidin-1-yl]methanone] | 6100 nM | 5900 nM | 310 nM
12 | O=C(NC1CCN(C(=O)c2cc(NCc3ccco3)nc(-c3cnn4ccsc34)n2)CC1)C1CC1 [Example 160, N-1-[6-[(furan-2-yl)methyl]amino-2-(pyrazolo[5,1-b][1,3]thiazol-7-yl)pyrimidine-4-carbonyl]piperidin-4-ylcyclopropanecarboxamide] | > 10000 nM | > 10000 nM | 980 nM
13 | CC(C)[C@@H](C)Nc1cc(C(=O)N2CCC(NC(=O)C(F)F)CC2)nc(-c2cnn3ccsc23)n1 [Example 136, 2,2-Difluoro-N-(1-{[6-{[(2R)-3-methylbutan-2-yl]amino}-2-(pyrazolo[5,1-b][1,3]thiazol-7-yl)pyrimidin-4-yl]carbonyl}piperidin-4-yl)acetamide] | 1400 nM | 3500 nM | 490 nM
14 | C[C@H](Nc1cc(C(=O)N2CCC(NC(=O)C3CCCCC3)CC2)nc(-c2cnn3ccsc23)n1)C1CC1 [Example 167, N-1-[6-[(1S)-1-cyclopropylethyl]amino-2-(pyrazolo[5,1-b][1,3]thiazol-7-yl)pyrimidine-4-carbonyl]piperidin-4-ylcyclohexanecarboxamide] | 9500 nM | 1100 nM | 230 nM
15 | C[C@H](Nc1cc(C(=O)N2CCC(NC(=O)C3CCC3)CC2)nc(-c2cnn3ccsc23)n1)C1CC1 [Example 165, N-1-[6-[(1S)-1-cyclopropylethyl]amino-2-(pyrazolo[5,1-b][1,3]thiazol-7-yl)pyrimidine-4-carbonyl]piperidin-4-yl cyclobutanecarboxamide] | > 10000 nM | 1200 nM | 40 nM
16 | COCCOC(=O)NC1CCN(C(=O)c2cc(N[C@H](C)C3CC3)nc(-c3cnn4ccsc34)n2)CC1 [Example 88, 2-Methoxyethyl (1-{[6-{[(1R)-1-cyclopropylethyl]amino}-2-(pyrazolo[5,1-b][1,3]thiazol-7-yl)pyrimidin-4-yl]carbonyl}piperidin-4-yl)carbamate] | 1000 nM | 4100 nM | 190 nM
17 | CCOc1c(N[C@@H](C)C2CC2)nc(-c2cnn3ccsc23)nc1C(=O)N1CCC(NC(=O)OC)CC1 [Example 154, Methyl (1-{[6-{[(1S)-1-cyclopropylethyl]amino}-5-ethoxy-2-(pyrazolo[5,1-b][1,3]thiazol-7-yl)pyrimidin-4-yl]carbonyl}piperidin-4-yl)carbamate] | 5300 nM | 3100 nM | 180 nM
18 | C[C@@H](Nc1cc(C(=O)N2CCC(NC(=O)N(C)C)CC2)nc(-c2cnn3ccsc23)n1)C1CC1 [Example 138, 3-(1-{[6-{[(1R)-1-Cyclopropylethyl]amino}-2-(pyrazolo[5,1-b][1,3]thiazol-7-yl)pyrimidin-4-yl]carbonyl}piperidin-4-yl)-1,1-dimethylurea] | 2000 nM | 4300 nM | 650 nM
